Five compounds from ChEMBL document CHEMBL4000183, “Phenylpropanoids from Juglans mandshurica exhibit cytotoxicities on liver cancer cell lines through apoptosis induction” (Bioorg Med Chem Lett, 2017) can be followed below.

The subject of assay [1] is Hep 3B2. The assay can be described thus: Cytotoxic activity against human Hep3B cells assessed as growth inhibition after 48 hrs by MTT assay. Format: functional, cell-based. In general terms: Tetrazolium assays rely on reduction of a dye to a coloured formazan, in cell work by metabolically active cells.
The test system of assay [2] is HepG2. Put plainly: Cytotoxic activity against human HepG2 cells assessed as growth inhibition after 48 hrs by MTT assay. Format: functional, cell-based.
Assay [3] deals with Hep 3B2. The assay can be described thus: Cytotoxic activity against human Hep3B cells assessed as growth inhibition at 6.25 uM after 48 hrs by MTT assay. Format: functional. The conditions noted are these: read-out: GI.
Assay [4] relates to HepG2. The assay can be described thus: Cytotoxic activity against human HepG2 cells assessed as growth inhibition at 25 uM after 48 hrs by MTT assay. The format is functional. The note with it: HepG2, 48 h, read-out: GI.
For assay [5], the system named is Hep 3B2. Put plainly: Cytotoxic activity against human Hep3B cells assessed as growth inhibition at 12.5 uM after 48 hrs by MTT assay. The format is functional. The note with it: read-out: GI.
For assay [6], the system named is Hep 3B2. The assay can be described thus: Cytotoxic activity against human Hep3B cells assessed as growth inhibition at 100 uM after 48 hrs by MTT assay. Format: functional. The note with it: read-out: GI.
Assay [7] deals with HepG2. Put plainly: Cytotoxic activity against human HepG2 cells assessed as growth inhibition at 100 uM after 48 hrs by MTT assay. The conditions noted are these: HepG2, 48 h, read-out: GI. Format: functional.
Assay [8] has as its system HepG2. Put plainly: Cytotoxic activity against human HepG2 cells assessed as growth inhibition at 50 uM after 48 hrs by MTT assay. Format: functional. The note with it: HepG2, 48 h, read-out: GI.
Assay [9] deals with HepG2. The assay can be described thus: Cytotoxic activity against human HepG2 cells assessed as growth inhibition at 6.25 uM after 48 hrs by MTT assay. The format is functional. The note with it: HepG2, 48 h, read-out: GI.
The test system of assay [10] is HepG2. The assay can be described thus: Cytotoxic activity against human HepG2 cells assessed as growth inhibition at 12.5 uM after 48 hrs by MTT assay. The format is functional. The conditions noted are these: HepG2, 48 h, read-out: GI.
Assay [11] relates to Hep 3B2. The assay can be described thus: Cytotoxic activity against human Hep3B cells assessed as growth inhibition at 50 uM after 48 hrs by MTT assay. Format: functional. The conditions noted are these: read-out: GI.
Assay [12] relates to Hep 3B2. The assay can be described thus: Cytotoxic activity against human Hep3B cells assessed as growth inhibition at 25 uM after 48 hrs by MTT assay. Format: functional. The conditions noted are these: read-out: GI.

A word on the IC50: it is the concentration needed to halve the response being measured.

On to `CC(CO)CCOc1ccc(/C=C/CO)cc1` (configuration not stated), for which the “growth inhibition (GI)” value in [1] amounted to 7.75%; in [2], 9.26%.
For `O=c1[nH]cc(F)c(=O)[nH]1` [FLUOROURACIL], the “growth inhibition (GI)” value is recorded as 56.74% in assay [1] and 51.78% in assay [2]. Moreover, the IC50 lay within 10.5 to 11.9 µM in [1] (Homo sapiens, Hep3B, 48 h) and 32.6 to 49.7 µM in assay [2] (Homo sapiens, HepG2, 48 h). The inhibition of growth at 6.25 µM stood at 48.9% in [3] and 19.3% in assay [9]. In addition, the results for the inhibition of growth at 25 µM in [4] and in assay [12] were 39.2% and 51.7%, respectively. Further, the inhibition of growth at 12.5 µM in [5] worked out at 50.6%; in [10] it was 32.9%. Moreover, the values for the inhibition of growth at 100 µM in [6] and in [7] were 57% and 51.2%, respectively. Further, the figures for the inhibition of growth at 50 µM in [8] and in assay [11] were 47.3% and 54.5%, respectively.
In the case of `CC(/C=C\Oc1ccc(CCCO)cc1)CO` (single isomer, unassigned; (+)), the “growth inhibition (GI)” value is recorded as 69.59% in assay [1] and 13.76% in assay [2].
For `CC(CO)CCOc1ccc(C=O)cc1` (configuration not stated), the “growth inhibition (GI)” value in assay [1] is on record as 27.41%; in assay [2] it was -1.05%.
Turning to `COC(=O)/C=C/c1ccc(OC/C=C(\C)CO)cc1`, the results for the “growth inhibition (GI)” value in [1] and in [2] were 26.16% and 86.42%, respectively.
